Assay results from PMC7766124, “Improved Cell Selectivity of Pseudin-2 via Substitution in the Leucine-Zipper Motif: In Vitro and In Vivo Antifungal Activity” (Antibiotics, 2020).
Where two headings read alike, the source gives them in different places. No end group written: not given here.

Assays:
C. krusei = type: cell-based, C. krusei (CCARM 14017); details: 36 h
From the text: (§1) Aspergillus flavus (KCTC 6905), A. fumigatus (KCTC 6145), Fusarium moniliforme (KCTC 6149), F. oxysporum (KCTC 16909), C. albicans (KCTC 7270), C. krusei (CCARM 14017), C. parapsilosis (CCARM 14016), C. tropicalis (KCTC 7221), and T. beigelii (KCTC 7707) were obtained from the Korea Collection for Type Cultures (KCTC) and Culture Collection of Antimicrobial Resistant Microbes (CCARM). Mold and yeast fungi were pre-grown on potato dextrose (PD) and yeast extract peptone dextrose (YPD) agars, respectively.
(§2) Antifungal activity of peptides was performed by microtiter plate assays. Fungal conidia from four-day-old molds were collected using 0.08% Triton X-100 (v/v), and pre-cultivated yeast cells were adjusted to 2 × 10^4 spores/mL in 10 mM sodium phosphate buffer (SP, pH 7.2) or 10 mM 2-(N-morpholino)ethanesulfonic acid (MES) buffer (pH 5.5) supplemented with 20% culture medium, followed by addition to peptide solutions (0.25, 0.5, 1, 1.5, 2, 4, 6, 8, 12, 16, 32, 48, and 64 µM) in 96-well microtiter plates. After incubation for 36 h at 28 °C, the hyphal growth of conidia and the proliferation of yeast cells were observed under a light microscope. All assays were performed in triplicate. The MIC values were defined as the lowest concentration of samples that reduced fungal germination (for mold) or cell proliferation (for yeast) by more than 90% [34].

F. moniliforme = type: cell-based, Fusarium moniliforme (KCTC 6149); details: 36 h
From the text: as §1, §2

A. flavus = type: cell-based, Aspergillus flavus (KCTC 6905); details: 36 h
From the text: as §1, §2

A. fumigatus = type: cell-based, A. fumigatus (KCTC 6145); details: 36 h
From the text: as §1, §2

C. parapsilosis = type: cell-based, C. parapsilosis (CCARM 14016); details: 36 h
From the text: as §1, §2

[1] = Calcein leakage from fungus-mimic artificial vesicles; details: fungus-mimic PC/PE/PI/ergosterol vesicles, 20 μM lipid; peptide/lipid molar ratio 0.05; 100% = 0.03% Triton X-100; three independent experiments
Procedure: The permeability of peptides in calcein-entrapped artificial liposomes was assayed by measuring calcein leakage. The desired mixtures of lipids (PC/PE/PI/ergosterol, 5:4:1:2 and PC/CH/SM, 2:1:1, weight ratio) were dissolved in chloroform at 10 mg/mL, dried in a glass tube under nitrogen, and then lyophilized overnight to remove residual solvent. The dried lipid films were resuspended in 1 mL of dye solution (80 mM calcein, 10 mM HEPES buffer, pH 7.2) at 50 °C and vortexed, followed by freeze-thawing for nine cycles and extrusion with polycarbonate filters (0.2-μm pore-size) using an Avanti Mini-Extruder (Avanti Polar Lipids Inc., Alabaster, AL, USA). Free calcein was removed using PD-10 desalting columns (GE Healthcare Life Science, Seoul, Korea). Calcein-entrapped vesicles of 20 μM lipids were incubated with peptides at concentrations of […], 0.02, 0.05, and 0.1 molar ratio (peptide/lipid) and the fluorescence was assessed at 480 (Ex) and 520 (Em) nm using a microtiter SpectraMax M5 reader (Molecular Devices). Complete (100%) release was achieved by the addition of 0.03% Triton X-100 (v/v).

F. oxysporum = type: cell-based, F. oxysporum (KCTC 16909); details: 36 h
From the text: as §1, §2

T. beigelii = type: cell-based, T. beigelii (KCTC 7707); details: 36 h
From the text: as §1, §2

C. tropicalis = type: cell-based, C. tropicalis (KCTC 7221); details: 36 h
From the text: as §1, §2

C. albicans = type: cell-based, C. albicans (KCTC 7270); details: 36 h
From the text: as §1, §2

HaCaT cells = assay: Cytotoxicity, XTT cell viability assay; type: cell-based, human; details: peptides 4-256 µM, 24 h incubation, triplicate
Procedure: Cell viability was assessed using sodium XTT assays. HaCaT (human immortalized keratinocytes) cells were cultured in Dulbecco’s modified Eagle medium (DMEM; ThermoFisher Scientific, Gibco, Waltman, MA, USA) supplemented with antibiotic-antimycotic (ThermoFisher Scientific, Gibco) and 10% fetal bovine serum (FBS; ThermoFisher Scientific, Gibco) at 37 °C in a humidified chamber containing 5% CO2. The cells were seeded at 5 × 10^4 cells/mL in flat-bottom 96-well microtiter plates in triplicate. Twenty-four hours later, cells were treated with two-fold serial dilutions of peptides (ranging from 256 to 4 µM) in medium, and the cells were further incubated for 24 h. Next, activated-XTT solution was added to each well and the plates were additionally incubated for 4 h. Absorbance in each well was measured at wavelengths of 480 and 650 nm using a microtiter SpectraMax M5 reader (Molecular Devices, Sunnyvale, CA, USA). Triton X-100 (0.1% v/v) and DMEM were used as controls for survival.

| Substance | MIC (C. krusei; pH 5.5) | MIC (C. krusei; pH 7.2) | MIC (F. moniliforme; pH 5.5) | MIC (F. moniliforme; pH 7.2) | MIC (A. flavus; pH 5.5) | MIC (A. flavus; pH 7.2) | MIC (A. fumigatus; pH 5.5) | MIC (A. fumigatus; pH 7.2) | MIC (C. parapsilosis; pH 5.5) | MIC (C. parapsilosis; pH 7.2) | leakage of calcein [1] | MIC (F. oxysporum; pH 5.5) | MIC (F. oxysporum; pH 7.2) | MIC (T. beigelii; pH 5.5) | MIC (T. beigelii; pH 7.2) | MIC (C. tropicalis; pH 5.5) | MIC (C. tropicalis; pH 7.2) | MIC (C. albicans; pH 5.5) | MIC (C. albicans; pH 7.2) | cytotoxic effects against HaCaT cells (HaCaT cells) |
| --- | --- | --- | --- | --- | --- | --- | --- | --- | --- | --- | --- | --- | --- | --- | --- | --- | --- | --- | --- | --- |
| GLNALKKVFQGAHEAIKLANNHVQ-NH2 [P2-LZ3] | 8 (8) µM | 8 (8) µM | 32 µM | 64 µM | 32 µM | 64 µM | 16 µM | 64 µM | >64 (>64) µM | >64 (>64) µM | 48.3% | 16 µM | 4 µM | 2 µM | 6 µM | 2 (2) µM | 2 (2) µM | 16 µM | 8 µM |  |
| GANALKKVAQGIHEAIKLINNHVQ-NH2 [P2-LZ2] | 4 µM | 6 µM | 16 µM | 24 µM | 12 µM | 32 µM | 16 µM | 24 µM | 64 µM | 48 µM | 77.0% | 16 µM | 2 µM | 2 (2) µM | 2 (2) µM | 1.5 µM | 2 µM | 32 µM | 4 µM |  |
| GLNAAKKVFQGAHEAIKLINNHVQ-NH2 [P2-LZ1] | 8 (8) µM | 8 (8) µM | 48 (48) µM | 48 (48) µM | 12 µM | 64 µM | 16 µM | 64 µM | > 64 (>64) µM | > 64 (>64) µM | 81.8% | 12 µM | 4 µM | 2 (2) µM | 2 (2) µM | 2 µM | 4 µM | 32 µM | 8 µM | significant, concentration-dependent cytotoxic effects |
